Data published in patent US7250410B2, “Cyclic nucleotide phosphodiesterase inhibitors, preparation and uses thereof” (Via Pharmaceuticals, Inc., priority 2001, dated 2007).
Values joined by “and” are separate entries in the source; they are usually repeats but may differ in a detail not shown here. Equal values may be shown once.

Columns and labels:
Assay type in all cases: biochemical, bovine
[1] = biological target: T1, PDE5 (Bos taurus, UniProt Q28156); test: Selectivity: inhibition of PDE5, radioenzymatic phosphodiesterase assay; conditions: Table 4 Selectivity; compound at 10 μM; read-out: PDE5 percentage inhibition at 10 μM
T1 construct: localize the different enzymes PDE1, PDE3, PDE4 and PDE5, which were aliquoted and frozen; from tissue; host or cells: bovine aortic media (vascular smooth muscle), DEAE-Sephacel fraction
Procedure: (§1) A 3 g segment of bovine aortic media cut into pieces with scissors was homogenized with an ultra-turrax then a potter glass/glass homogenizer in 7 volumes by weight of buffer A containing a protease inhibitor cocktail (20 mM Tris-HCl, 0.25 M saccharose, 2 mM magnesium acetate, 1 mM dithiothreitol, 5 mM EGTA, 2000 U/ml aprotinin, 10 mg/l leupeptin and 10 mg/l soya trypsic inhibitor). The homogenizate was centrifuged at 105,000 g for 1 hour. The supernatant was loaded on a DEAE-Sephacel column (15×1.6 cm) pre-equilibrated with buffer B (buffer A without the saccharose, EGTA and protease inhibitors). The column was washed until there was no detectable absorption at 280 nm, then eluted with a linear gradient of NaCl (0–0.5 M) in buffer B. 3-ml fractions were collected and enzyme activity was determined under the conditions described hereinafter to localize the different enzymes PDE1, PDE3, PDE4 and PDE5, which were aliquoted and frozen at −80° C. (Lugnier et al., Biochem. Phamacol., 35 (1986) 1746–1751). PDE2 was prepared from bovine endothelial cells by the same methods (Lugnier and Schini, Biochem. Pharmacol. 1990, 39; 75–84).
(§2) Cyclic nucleotide phosphodiesterase activity was determined by a radioenzymatic method using tritium-labelled cyclic GMP or AMP (1 μM) as substrate (Lugnier et al., 1986). ^3H-labelled adenosine or guanosine monophosphate formed by hydrolysis of the radiolabelled cyclic nucleotide was then converted to ^3H-labelled adenosine or guanosine in a second reaction with […] in excess. The nucleoside formed was separated from the nucleotides by anion exchange chromatography. Nucleoside radioactivity was determined by liquid scintillation counting. Enzymatic incubations were carried out under conditions allowing no more than 15% hydrolysis of the substrate; each point was performed in duplicate.
(§3) The activity of the compounds was evaluated on other phosphodiesterase isoforms, particularly basal state or calmodulin-activated PDE1 from vascular smooth muscle, basal state or cyclic GMP-activated PDE2 from vascular endothelial cells, PDE3 and PDE5 from vascular smooth muscle.
(§4) The results obtained are presented in Table 4 hereinafter and are expressed as the percentage inhibition of enzymatic activity produced by […] of the tested compound.

[2] = biological target: T2, PDE3 (Bos taurus, UniProt A0A3Q1M1E8); test: Selectivity: inhibition of PDE3, radioenzymatic phosphodiesterase assay; conditions: read-out: PDE3 percentage inhibition at 10 μM
T2 sequence (A0A3Q1M1E8 1-1126): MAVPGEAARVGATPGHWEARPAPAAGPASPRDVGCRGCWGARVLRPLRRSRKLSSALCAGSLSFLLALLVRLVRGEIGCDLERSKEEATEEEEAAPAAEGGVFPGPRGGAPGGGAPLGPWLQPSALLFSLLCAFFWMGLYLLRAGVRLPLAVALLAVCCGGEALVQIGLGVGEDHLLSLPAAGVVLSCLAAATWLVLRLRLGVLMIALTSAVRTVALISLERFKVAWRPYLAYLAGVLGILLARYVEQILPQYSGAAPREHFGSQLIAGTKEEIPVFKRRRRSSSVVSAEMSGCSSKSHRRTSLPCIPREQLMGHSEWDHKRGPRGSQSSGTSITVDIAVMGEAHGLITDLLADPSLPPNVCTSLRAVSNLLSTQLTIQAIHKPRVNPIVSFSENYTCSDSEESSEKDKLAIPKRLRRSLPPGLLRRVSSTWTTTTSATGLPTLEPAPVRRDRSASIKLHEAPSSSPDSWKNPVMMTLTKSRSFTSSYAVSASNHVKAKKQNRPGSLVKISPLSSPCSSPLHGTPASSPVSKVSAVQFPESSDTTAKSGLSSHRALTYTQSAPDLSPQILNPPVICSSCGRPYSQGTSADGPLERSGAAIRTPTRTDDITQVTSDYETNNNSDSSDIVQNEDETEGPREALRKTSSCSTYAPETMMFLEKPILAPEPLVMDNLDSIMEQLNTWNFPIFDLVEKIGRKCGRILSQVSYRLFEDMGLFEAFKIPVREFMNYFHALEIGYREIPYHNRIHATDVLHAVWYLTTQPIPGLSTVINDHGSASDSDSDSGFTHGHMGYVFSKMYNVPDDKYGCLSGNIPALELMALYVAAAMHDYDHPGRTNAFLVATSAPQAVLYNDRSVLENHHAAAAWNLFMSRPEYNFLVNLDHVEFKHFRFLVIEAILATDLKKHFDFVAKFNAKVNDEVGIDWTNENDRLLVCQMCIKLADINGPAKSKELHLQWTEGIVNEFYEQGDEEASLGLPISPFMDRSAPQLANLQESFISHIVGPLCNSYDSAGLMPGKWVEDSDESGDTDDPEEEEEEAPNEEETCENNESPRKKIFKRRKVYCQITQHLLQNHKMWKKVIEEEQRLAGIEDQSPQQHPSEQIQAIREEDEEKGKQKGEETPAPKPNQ
Procedure: as §1, §2, §3, §4

[3] = biological target: PDE4; test: Inhibition of PDE4, radioenzymatic phosphodiesterase assay
Outline: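 PDE4 partially purified from bovine aortic media by 105,000 g centrifugation and anion-exchange chromatography with an NaCl gradient. Activity measured radioenzymatically: product nucleoside separated from nucleotides by anion exchange and counted by liquid scintillation.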

Row | Structure (SMILES) | inhibition at 10 µM [1] [%] | inhibition at 10 µM [2] [%] | IC50 ([3]; Table 3, formula (II), 1 μM cyclic AMP) | IC50 ([3]; Table 4 Selectivity) [µM] | IC50 ([3]; Table 2, formula (XXII), 1 μM cyclic AMP) [µM]
1 | CCOc1cc2c(cc1OC)C(c1ccccc1)=NCC(=O)N2C [IIda, 8-ethoxy-7-methoxy-1-methyl-5-phenyl-1,3-dihydro-2H-1,4-benzodiazepin-2-one] | 14 | 47 | 0.55 µM and 0.43 µM | 0.5 | –
2 | CCOc1cc2c(cc1OCC)C(c1ccccc1)=NCC(=O)N2 [XXIIag, 7,8-diethoxy-5-phenyl-1,3-dihydro-2H-1,4-benzodiazepin-2-one] | 35 | 22 | – | 0.95 | 0.95
